# Source: patent US20080103158A1, “METHODS FOR TREATING DELAYING THE PROGRESSION OF ALZHEIMER'S DISEASE WITH HETEROCYCLIC COMPOUNDS” (ZENYAKU KOGYO KABUSHIKI KAISHA, priority 2006, published 2008)
# Test system: amyloid β deposition in the hippocampus
# Assay: Amyloid β deposition inhibitory activity: amyloid β immunohistochemistry of the hippocampus in senescene accelerated mice (SAMP8)
# Assay type: in vivo
# Conditions: hippocampus immunohistochemistry
# Protocol: Senescene accelerated mice (SAMP8) (male, 8 months old at the beginning of the study) were used for experiment. Approximately 0.1 mg/kg/day of Compound 1 was given in drinking water. Eight weeks after the dosing, the mouse brain was removed, Methacarn-fixed (methanol:chloroform:acetic acid=6:3:1), and paraffin-embedded. Then, sections of 8 μm in thickness were prepared using a microtome.
# The sections were immunostained with streptavidin-biotin using a VECTASTATIN ABC kit. After one hour of incubation in 10% normal goat serum, the anti-amyloid β (Aβ) antibody was diluted with PBS to ten fold and incubated at 4° C. overnight. The following day, PBS rinsing, 1.5 hours of incubation with biotinylated anti-rabbit secondary antibody, PBS rinsing, and 1.5 hours of incubation with peroxidase-labeled streptavidin were conducted. The immunoreaction was visualized with DAB and specimens were prepared.
# Immunoreactive Aβ-like granules in the hippocampus were counted under the microscope. The Aβ-like immunoreactive granule was observed as brown deposits in the hippocampus. The count was made for one section per individual.
row,Structure (SMILES),amyloid β deposition (overall conclusion)
1,"O=C1N=C2C=CC=CN2C12Cc1ccccc1C2 [Compound 1, spiro[imidazo[1,2-a]pyridin-2(3H)-one-3,2′-indan]]",inhibits amyloid β deposition

# Same assay, conditions: hippocampus, one section per individual, oral 0.002, 0.01 and 0.1 mg/kg in drinking water for 2 months, FIG. 2
row,Structure (SMILES),number of amyloid β-immunoreactive granules
1,"O=C1N=C2C=CC=CN2C12Cc1ccccc1C2 [Compound 1, spiro[imidazo[1,2-a]pyridin-2(3H)-one-3,2′-indan]]",significantly (*) decreased

# Same assay, conditions: male, 8 months old, Compound 1 in drinking water at oral dosage of 0.002, 0.01 and 0.1 mg/kg/day for 2 months, vs tap water
row,Structure (SMILES),amyloid β-like immunoreactivity in the hippocampus
1,"O=C1N=C2C=CC=CN2C12Cc1ccccc1C2 [Compound 1, spiro[imidazo[1,2-a]pyridin-2(3H)-one-3,2′-indan]]",reduced

# Test system: not given
# Assay: not given
# Conditions: not given
row,Structure (SMILES),melting point
1,"O=C1N=C2C=CC=CN2C12Cc1cc3nsnc3cc1C2 [Compound 61, spiro[imidazo[1,2-a]pyridin-2(3H)-one-3,2′-((1,2,5-thiadiazo)[4,5-c]indan)]]",86 to 88 °C
2,"CC1=CN2C(=NC(=O)C2(Cc2ccccc2)Cc2ccccc2)S1 [Compound 48, 5,5-dibenzyl-2-methylimidazo[2,1-b]thiazol-6(5H)-one]",> 300 °C
3,O=C1N=C2C=CC=CN2C1(Cc1ccc([N+](=O)[O-])cc1)Cc1ccc([N+](=O)[O-])cc1,> 300 °C
4,"CCCCC1(CCCC)C(=O)N=C2C=CC=CN21 [Compound 34, 3,3-dibutylimidazo[1,2-a]pyridin-2(3H)-one]",100.5 to 102 °C
5,"N#Cc1ccc(CC2(Cc3ccc(C#N)cc3)C(=O)N=C3SC=CN32)cc1 [Compound 47, 5,5-bis(4-cyanobenzyl)imidazo[2,1-b]thiazol-6(5H)-one]",264 to 267 °C
6,"O=C1N=C2C=CC=CN2C1(Cc1ccc(F)cc1F)Cc1ccc(F)cc1F [Compound 28, 3,3-bis(2,4-difluorobenzyl)imidazo[1,2-a]pyridin-2(3H)-one]",269 to 271 °C
7,"CN(C)c1ccc(CC2(Cc3ccc(N(C)C)cc3)C(=O)N=C3C=CC=CN32)cc1 [Compound 18, 3,3-bis(4-dimethylaminobenzyl)imidazo[1,2-a]pyridin-2(3H)-one]",> 300 °C
8,"N#Cc1ccc(CC2(Cc3ccc(C#N)cc3)C(=O)N=C3C=CC=CN32)cc1 [Compound 22, 3,3-bis(4-cyanobenzyl)imidazo[1,2-a]pyridin-2(3H)-one]",294 °C (dec.)
9,"COc1ccc(CC2(Cc3ccc(OC)cc3)C(=O)N=C3C=CC=CN32)cc1 [Compound 20, 3,3-bis(4-methoxybenzyl)imidazo[1,2-a]pyridin-2(3H)-one]",248 to 251 °C
10,"O=C1N=C2C=CC=CN2C1(C1C=CCCC1)C1C=CCCC1 (centres unmarked) [Compound 67, 3,3-bis(2-cyclohexenyl)imidazo[1,2-a]pyridin-2(3H)-one]",245 to 247 °C
11,"O=C1N=C2C(OCC3CC3)=CC=CN2C12CC=CC2 [Compound 83, spiro[8-cyclopropylmethyloxyimidazo[1,2-a]pyridin-2(3H)-one-3,4′-(1′-cyclopentene)]]",134 to 137 °C
12,"O=C1N=C2C3=C(C=CN2C12CCCC2)CCCC3 [Compound 74, spiro[7,8,9,10-tetrahydroimidazo[2,1-a]isoquinolin-2(3H)-one-3,1′-cyclopentane]]",270.5 °C (dec.)
13,"NC1=CC=CN2C1=NC(=O)C2(Cc1ccccc1)Cc1ccccc1 [Compound 39, 8-amino-3,3-dibenzylimidazo[1,2-a]pyridin-2(3H)-one]",283 to 285 °C
14,"O=C1N=C2C=CC=CN2C12Cc1ccc(I)cc1C2 (centres unmarked) [Compound 58, spiro[imidazo[1,2-a]pyridin-2(3H)-one-3,2′-(5′-iodoindan)]]",167 to 171 °C
15,"O=C1N=C2C=CC=CN2C12Cc1ccc3ccccc3c1C2 (centres unmarked) [Compound 65, spiro[imidazo[1,2-a]pyridin-2(3H)-one-3,2′-benzo[e]indan]]",256 °C (dec.)
16,"CC1=CC2=NC(=O)C(Cc3ccccc3)(Cc3ccccc3)N2C(C)=C1 [Compound 10, 3,3-dibenzyl-5,7-dimethylimidazo[1,2-a]pyridin-2(3H)-one]",237 to 238 °C
17,"O=C1N=C2N=CC=CN2C1(Cc1ccccc1)Cc1ccccc1 [Compound 45, 3,3-dibenzylimidazo[1,2-a]pyrimidin-2(3H)-one]",> 300 °C
18,"C=CCC1(CC=C)C(=O)N=C2C(OCC3CC3)=CC=CN21 [Compound 79, 8-cyclopropylmethyloxy-3,3-diallylimidazo[1,2-a]pyridin-2(3H)-one]",139 to 142 °C
19,"Cc1ccc(CC2(Cc3ccc(C)cc3)C(=O)N=C3SC=CN32)cc1 [Compound 46, 5,5-bis(4-methylbenzyl)imidazo[2,1-b]thiazol-6(5H)-one]",> 300 °C
20,"O=C1N=C2N=CC=CN2C1(Cc1cccs1)Cc1cccs1 [Compound 50, 3,3-bis(2-thienylmethyl)imidazo[1,2-a]pyrimidin-2(3H)-one]",192 °C (dec.)
21,"O=C1N=C2SC=CN2C1(Cc1cccs1)Cc1cccs1 [Compound 49, 5,5-bis(2-thienylmethyl)imidazo[2,1-b]thiazol-6(5H)-one]",286 °C (dec.)
22,"COC1=CC=CN2C1=NC(=O)C21CC=CC1 [Compound 82, spiro[8-methoxyimidazo[1,2-a]pyridin-2(3H)-one-3,4′-(1′-cyclopentene)]]",200 to 202 °C

# Test system: not listed separately
# Assay: preclinical study (safety)
# Conditions: not given
row,Structure (SMILES),safety in the preclinical study
1,"O=C1N=C2C=CC=CN2C12Cc1ccccc1C2 [Compound 1, spiro[imidazo[1,2-a]pyridin-2(3H)-one-3,2′-indan]]",highly safe
